Data published in US9497966B2, “Pesticidal compositions and related methods” (DOW AGROSCIENCES LLC, priority 2013, dated 2016).

Experiments:
[1] = system: Sweetpotato Whitefly-Crawler (Bemisia tabaci) (WF) (BEMITA); assay: Insecticidal test for Sweetpotato Whitefly-Crawler in foliar spray assay on cotton plants; assay type: in vivo; settings: 216 h, 200 ppm foliar spray on cotton, graded after 9 days, Abbott-corrected % control, read-out: % Control (or Mortality) rating, WF
Experimental: Example B: Insecticidal Test for Sweetpotato Whitefly-Crawler (Bemisia tabaci) (WF) (BEMITA) in Foliar Spray Assay
Cotton plants (Gossypium hirsutum) grown in 3-inch pots, with 1 small (4-5 cm) true leaves, were used as test substrate. The plants were infested with 200-400 whitefly eggs 4-5 days prior to chemical application. Four pots with individual plants were used for each treatment. Test compounds (2 mg) were dissolved in 1 mL of acetone solvent, forming stock solutions of 2000 ppm test compound. The stock solutions were diluted 10× with 0.025% Tween 20 in H2O (diluents) to obtain the solution at 200 ppm test compound. A hand-held aspirator-type sprayer was used for spraying a solution to both sides of cotton leaves until runoff. Reference plants (solvent check) were sprayed with the diluent only containing 10% by volume of acetone solvent. Treated plants were held in a holding room for 9 days at approximately 25° C. and ambient relative humidity (RH) prior to grading. Evaluation was conducted by counting the number of live 3-4 nymph stage per plant under a microscope. Percent control was measured by using Abbott's correction formula (W. S. Abbott, “A Method of Computing the Effectiveness of an Insecticide,” J. Econ. Entomol. 18 (1925), pp. 265-267) as follows. Corrected % Control=100*(X−Y)/X • where • X=No. of live nymphs on solvent check plants and • Y=No. of live nymphs on treated plants.
Biological Data for Green Peach Aphid (MYZUPE) and Sweetpotato Whitefly-crawler (WF) (BEMITA)” (See Table Section).

[2] = system: Green Peach Aphid (Myzus persicae) (GPA) (MYZUPE); assay: Bioassay for Green Peach Aphid, foliar spray on infested cabbage seedlings; assay type: in vivo; settings: 72 h, 200 ppm foliar spray on cabbage, graded after three days, Abbott-corrected % control, read-out: % Control (or Mortality) rating, GPA
Experimental: Example A: Bioassays for Green Peach Aphid (Myzus persicae) (GPA) (MYZUPE)
Cabbage seedlings grown in 3-inch pots, with 2-3 small (3-5 cm) true leaves, were used as test substrate. The seedlings were infested with 20-50 GPA (wingless adult and nymph stages) one day prior to chemical application. Four pots with individual seedlings were used for each treatment. Test compounds (2 mg) were dissolved in 2 mL of acetonemethanol (1:1) solvent, forming stock solutions of 1000 ppm test compound. The stock solutions were diluted 5× with 0.025% Tween 20 in H2O to obtain the solution at 200 ppm test compound. A hand-held aspirator-type sprayer was used for spraying a solution to both sides of […] leaves until runoff. Reference plants (solvent check) were sprayed with the diluent only containing 20% by volume of acetonemethanol (1:1) solvent. Treated plants were held in a holding room for three days at approximately 25° C. and ambient relative humidity (RH) prior to grading. Evaluation was conducted by counting the number of live aphids per plant under a microscope. Percent control was measured by using Abbott's correction formula (W. S. Abbott, “A Method of Computing the Effectiveness of an Insecticide,” J. Econ. Entomol. 18 (1925), pp. 265-267) as follows. Corrected % Control=100*(X−Y)/X • where • X=No. of live aphids on solvent check plants and • Y=No. of live aphids on treated plants The results are indicated in the table entitled “TABLE 2. Biological Data for Green Peach Aphid (MYZUPE) and Sweetpotato Whitefly-crawler (WF) (BEMITA)” (See Table Section).

SMILES | mortality at 200 ppm [1] [%] | mortality at 200 ppm [2] [%]
CCON=C(CSC(c1ccccc1)(c1ccccc1)c1ccccc1)C(=O)N(CC)c1cn(-c2cccnc2)nc1Cl [Compound F12, N-(3-chloro-1-(pyridin-3-yl)-1H-pyrazol-4-yl)-2-(ethoxyimino)-N-ethyl-3-(tritylthio)propanamide] | 80 to 100 | 0 to 80
CON=C(CS(=O)(=O)CCC(F)(F)F)C(=O)N(C)c1cn(-c2cccnc2)nc1Cl [Compound P47, N-(3-chloro-1-(pyridin-3-yl)-1H-pyrazol-4-yl)-2-(methoxyimino)-N-methyl-3-((3,3,3-trifluoropropyl)sulfonyl)propanamide] | 80 to 100 | 80 to 100
C#CCN(C(=O)C(CSCC1CC1(F)F)=NOC)c1cn(-c2cccnc2)nc1Cl (stereo not drawn) [Compound F2, N-(3-Chloro-1-(pyridin-3-yl)-1H-pyrazol-4-yl)-3-(((2,2-difluorocyclopropyl)methyl)thio)-2-(methoxyimino)-N-(prop-2-yn-1-yl)propanamide] | 80 to 100 | 80 to 100
C#CCN(C(=O)C(CSC(c1ccccc1)(c1ccccc1)c1ccccc1)=NOCC)c1cn(-c2cccnc2)nc1Cl [Compound F1, N-(3-chloro-1-(pyridin-3-yl)-1H-pyrazol-4-yl)-2-(ethoxyimino)-N-(prop-2-yn-1-yl)-3-(tritylthio)propanamide] | 0 to 80 | < 0
C#CCN(C(=O)C(CSCC(F)(F)F)=NOC)c1cn(-c2cccnc2)nc1Cl [Compound F6, N-(3-Chloro-1-(pyridin-3-yl)-1H-pyrazol-4-yl)-2-(methoxyimino)-N-(prop-2-yn-1-yl)-3-((2,2,2-trifluoroethyl)thio)propanamide] | 80 to 100 | 80 to 100
CCN(C(=O)C(C[S+]([O-])CC1CC1(F)F)=NOC)c1cn(-c2cccnc2)nc1Cl (stereo not drawn) [Compound F22] | 80 to 100 | 80 to 100
CCN(C(=O)C(CS)=NOC)c1cn(-c2cccnc2)nc1Cl [Compound F9, N-(3-Chloro-1-(pyridin-3-yl)-1H-pyrazol-4-yl)-N-ethyl-3-mercapto-2-(methoxyimino)propanamide] | 0 to 80 | 80 to 100
CCON=C(CSCCCC(F)(F)F)C(=O)N(CC)c1cn(-c2cccnc2)nc1Cl [Compound F15, N-(3-Chloro-1-(pyridin-3-yl)-1H-pyrazol-4-yl)-2-(ethoxyimino)-N-ethyl-3-((4,4,4-trifluorobutyl)thio)propanamide] | 80 to 100 | 80 to 100
C#CCN(C(=O)C(CSCCCC(F)(F)F)=NOC)c1cn(-c2cccnc2)nc1Cl [Compound F19, N-(3-Chloro-1-(pyridin-3-yl)-1H-pyrazol-4-yl)-2-(methoxyimino)-N-(prop-2-yn-1-yl)-3-((4,4,4-trifluorobutyl)thio)propanamide] | 80 to 100 | 80 to 100
C=CCON=C(CSC(c1ccccc1)(c1ccccc1)c1ccccc1)C(=O)N(CC)c1cn(-c2cccnc2)nc1Cl [Compound F13, 2-((Allyloxy)imino)-N-(3-chloro-1-(pyridin-3-yl)-1H-pyrazol-4-yl)-N-ethyl-3-(tritylthio)propanamide] | 0 to 80 | 0 to 80
CCN(C(=O)C(C[S+]([O-])CCC(F)(F)F)=NOC)c1cn(-c2cccnc2)nc1Cl (stereo not drawn) [Compound F18, N-(3-Chloro-1-(pyridin-3-yl)-1H-pyrazol-4-yl)-N-ethyl-2-(methoxyimino)-3-((3,3,3-trifluoropropyl)sulfinyl)propanamide] | 80 to 100 | 80 to 100
CCON=C(CSCC(F)(F)F)C(=O)N(CC)c1cn(-c2cccnc2)nc1Cl [Compound F17, N-(3-Chloro-1-(pyridin-3-yl)-1H-pyrazol-4-yl)-2-(ethoxyimino)-N-ethyl-3-((2,2,2-trifluoroethyl)thio)propanamide] | 80 to 100 | 80 to 100
